Test results as given in patent publication US20170079966A1, “INHIBITION OF TUMOR CELL INTERACTIONS WITH THE MICROENVIRONMENT RESULTING IN A REDUCTION IN TUMOR GROWTH AND DISEASE PROGRESSION” (Deciphera Pharmaceuticals, LLC, priority 2014, published 2017).
pIC50: −log10 of the molar value. Read-outs that look alike come from different tables or passages of the source.

Key:
uTIE2 kinase = molecular target: T1, uTIE2 kinase (Homo sapiens, UniProt Q02763); test: Biochemical assay for uTIE2 kinase (pyruvate kinase/lactate dehydrogenase coupled); conditions: ATP 1.5 mM; rate 5 to 6 h; read-out: IC50, inhibition of uTIE2 kinase
T1 construct: purchased SignalChem
Procedure: Activity of uTIE2 kinase was determined by following the production of ADP from the kinase reaction through coupling with the pyruvate kinase/lactate dehydrogenase system [Schindler 2000]. In this assay, the oxidation of NADH (thus the decrease at A340 nm) was continuously monitored spectrophotometrically. The reaction mixture (100 μL) contained TIE2 (SignalChem) (5.6 nM), BSA (0.004% (w/v)), polyEY (1.5 mg/ml), MgCl2 (15 mM), DTT (0.5 mM), pyruvate kinase (4 units), lactate dehydrogenase (7 units), phosphoenol pyruvate (1 mM), and NADH (0.28 mM) and ATP (1.5 mM) in 90 mM Tris buffer containing 0.2% octyl-glucoside and 1% DMSO, pH 7.5. […] The absorption at 340 nm was monitored continuously for 6 hours at 30° C. on a plate reader (BioTek). The reaction rate was calculated using the 5 to 6 h time frame. Percent inhibition was obtained by comparison of reaction rate with that of a control (i.e. with no test compound).

[1] = system: circulating TIE2+ and TIE2+/MET+ monocytes; test: Flow cytometry of circulating TIE2/MET-expressing monocytes from U87-MG xenograft model; assay type: in vivo, mice; conditions: single agents; after five weeks of treatment
Procedure: Flow cytometry of circulating TIE2/MET-expressing monocytes from U87-MG xenograft model. Peripheral blood samples were fixed using Lyse/Fix buffer (BD Biosciences, San Jose, Calif.). BD Fc Block was added and cells were stained with CD11b-PECy7 and Gr1-APC antibodies (BD Pharmingen), and TIE2-PE and MET-FITC antibodies (eBioscience) or isotype controls. Data was collected on an Accuri C6 cytometer. Monocytes were gated using side and forward scatter.
To monitor these monocytes in the U87 survival model, peripheral monocytes were gated on CD11b+/Grl-surface markers and TIE2^+ and/or TIE2^+/MET^+ cells quantitated. In the U87 glioma survival study, we observed both of these TIE2^+ expressing monocyte populations in the circulation of vehicle-treated mice after five weeks of treatment. […] The lowered population of both of these TIE2^+ monocyte populations in the combination cohort was consistent with greater survival benefit (FIG. 6).

GSC17 glioblastoma cells = test: GSC17 glioma stem cell patient-derived xenograft model (tumor volume, immunohistochemistry); assay type: in vivo, mice
Procedure: For the in vivo experiments, 4- to 6-week-old female nude mice that were strictly inbred at The University of Texas MD Anderson Cancer Center and maintained in the MD Anderson Veterinary in accordance with institutional guidelines were used. For the in vivo experiments, GSC11 (5×10^5) or GSC17 (5×10^4) glioblastoma cells were implanted intracranially into nude mice. […] Control mice for these cohorts were treated with phosphate-buffered saline by i.p. injection and/or with 0.4% HPMC vehicle by oral gavage. One cohort of 10 mice per group were treated continuously and followed for survival. A separate cohort of 9 mice per group were treated continuously until the designated time point, and the tumors from these mice were extracted at 3, 4, 5 weeks in GSC11 xenograft mice model and at 3.5, 4.5, 5.5 weeks in GSC17 xenograft mice model after the start of treatment.
When the mice treated for the designated time period developed signs and symptoms of advanced tumors, they were euthanized, and their brains were removed, fixed in 4% formaldehyde for 24 hours, and embedded in paraffin. The tissues were then sectioned serially (4 μm) and stained with hematoxylin and eosin (Sigma-Aldrich). Tumor formation and phenotype were determined by histologic analysis of the hematoxylin- and eosin-stained sections. The tumor volume, greatest longitudinal diameter (length), and greatest transverse diameter (width) were measured using an external caliper and Adobe Illustrator software. The tumor volumes were calculated by the following formula: volume=½(length×width^2).
For immunohistochemical analyses, the tissue sections were deparaffinized and subjected to graded rehydration. After blocking the tissue in 5% horse and goat serum and antigen retrieval solution (citrate buffer, pH 6.0), we incubated the tissue sections overnight at 4° C. with primary antibodies against Factor VIII (1:500; A0082, Dako) to assess microvessel formation, vimentin (1:100; M0725, Dako) to assess mesenchymal marker expression, F4/80 (1:50; 123102, BioLegend) to assess monocyte infiltration, nestin (1:300; Ab6142, Abcam) to assess glioma stem cell marker expression, HGF (1:200; LS-B4657, LSBio), and TIE2 (1:50; Santa Cruz Biotechnology) to assess TIE2-expressing monocyte infiltration. Texas red fluorescein isothiocyanate-conjugated secondary antibodies or anti-rat immunoglobulin G antibodies (Invitrogen) were used for 1 hour at room temperature.
All statistical analyses were conducted with the GraphPad 6 (InStat) software for Windows 7. Survival analysis was conducted using the Kaplan-Meier method, and differences in survival between treatment groups were assessed using the log-rank test. All other comparisons were performed using an unpaired two-tailed Student t-test. Summary statistics for continuous data are expressed as the mean±standard error of the mean. P values less than 0.05 were considered statistically significant. The nestin staining was assessed using the Image-Pro Plus system version 7.0 (Media Cybernetics) in ×10 fields of at least three tumor samples per group with three to four different sections per tumor sample.

U87-MG xenograft glioma = test: Orthotopic U87-MG xenograft survival model; conditions: bevacizumab 10 mg/kg IP twice weekly; Compound 1 10 mg/kg twice daily PO; from Day 12
Procedure: Protocol for in vivo xenograft survival study. Female nude mice were implanted intracranially with one million luciferase-enabled U87-MG cells. Treatments began on Day 12. Mice (n=10/group) were dosed until the end of study. Three additional mice were treated as above for pharmacodynamic analysis after five weeks. Brain BLI signal was determined using an IVIS 50 optical imaging system (Xenogen, Alameda, Calif.). Animals were injected IP with 150 mg/kg D-Luciferin and imaged 10 min post-injection.
Treatment began on Day 12, when the mean brain BLI signal was 5.8×10^6 photons/sec, and continued until the end of study. Mice were followed through survival.

T1 sequence (Q02763 771-1124): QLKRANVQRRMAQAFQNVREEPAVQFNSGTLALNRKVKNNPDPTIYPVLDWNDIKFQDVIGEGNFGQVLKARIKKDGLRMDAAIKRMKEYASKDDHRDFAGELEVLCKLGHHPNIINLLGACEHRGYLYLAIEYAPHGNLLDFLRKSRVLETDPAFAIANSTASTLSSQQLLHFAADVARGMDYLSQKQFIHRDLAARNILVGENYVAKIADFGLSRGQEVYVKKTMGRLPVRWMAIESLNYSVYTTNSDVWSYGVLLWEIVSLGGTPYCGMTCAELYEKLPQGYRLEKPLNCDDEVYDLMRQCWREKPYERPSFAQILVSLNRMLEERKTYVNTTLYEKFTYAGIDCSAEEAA
Text for A375: Mice were implanted subcutaneously and treatment began on Day 8. Treatments ended on Day 36 after four weeks of treatment.

O=C(Nc1cc(Oc2cc(F)c(NC(=O)C3(C(=O)Nc4ccc(F)cc4)CC3)cc2F)ccn1)C1CC1 [Compound 1, N-(4-(2-(cyclopropanecarboxamido)pyridin-4-yloxy)-2,5-difluorophenyl)-N′-(4-fluorophenyl)cyclopropane-1,1-dicarboxamide]
pIC50 (uTIE2 kinase): 8.10 | Numbers of circulating TIE2+ and TIE2+/MET+ monocyte populations [1]: did not alter | Tumor volume at 3.5 weeks (GSC17 glioblastoma cells; GSC17, bevacizumab 10 mg/kg i.p. twice per week, Compound 1 10 mg/kg oral twice daily): 0.1±0.2 mm^3 | Tumor volume at 4.5 weeks (GSC17 glioblastoma cells; GSC17, same dosing): 9.8±3.9 mm^3 | Tumor volume at 5.5 weeks (GSC17 glioblastoma cells; GSC17, same dosing): 10.1±1.4 mm^3 | Factor VIII-positive area (GSC17 glioblastoma cells; GSC17 xenograft mouse model): 1.0±0.2% | Nestin-positive area (GSC17 glioblastoma cells; GSC17 xenograft mouse model): 2.9±1.0% | Mesenchymal tumor marker vimentin / EMT (immunohistochemistry) (GSC17 glioblastoma cells; GSC-17 glioma model): decreases levels of vimentin | Tumor infiltration of TIE2-positive/F4/80-positive cells (GSC17 glioblastoma cells; GSC-17 glioma xenograft model): lower | Day 22 % T/C (A375; 10 mg/kg, orally, BID): 47% | Median tumor growth delay (A375; 10 mg/kg, orally, BID): > 12.4 days | Day 22 % T/C (A375; 20 mg/kg, orally, QD): 33% | Tumor growth delay (A375; 20 mg/kg, orally, QD): 15.7 days | CD31+ microvessel area in tumor sections at the end of study (A375; mouse, in vivo): significant decreases | Median survival (U87-MG xenograft glioma): 112 days
